This is an account of results in the RepoRT retention time repository (doi:10.1021/acs.analchem.2c02893).

A short description of the series: RP, Thermo Scientific Acclaim RSLC 120 C18, 100 × 2.1 mm, 2.2 µm, 30 °C, 0.2 mL/min, estimated dead time 1.1 min; A: 90% water + 10% methanol + 0.01% formic acid + 5 mM ammonium formate, pH 3.61; B: methanol + 0.01% formic acid + 5 mM ammonium formate, pH 3.61; gradient (min/%B) 0/1 1/1 2/39 13/99.9 15/99.9 15.1/1 20.1/1. The settings on record: stereoisomer not certain.

On to `COCCCOc1cc(CC(CC(N)C(O)CC(C(=O)NCC(C)(C)C(N)=O)C(C)C)C(C)C)ccc1OC` (configuration not stated) [Aliskiren], for which the LC retention time is 8.87 min.
The same measure for `CC(NC(=O)C(N)CC(=O)O)C(=O)NC1C(C)(C)SC1(C)C` (configuration not stated) [Alitame]: 6.09 min; for `C=CCN1CCCC1CNC(=O)c1cc2n[nH]nc2cc1OC` (configuration not stated) [Alizapride]: 3.62 min.
In the case of `C=CCC1=C(C)C(OC(=O)C2C(C=C(C)C(=O)OC)C2(C)C)CC1=O` (configuration not stated) [Allethrin II] it was 12.3 min.
The same measure for `C=CCN(CC=C)C(=O)CCl` [Allidochlor]: 6.37 min.
As to `O=c1[nH]cnc2[nH]ncc12` [Allopurinol], the LC retention time was 2.19 min.
The same measure for `C=CCNc1nc(NCC=C)nc(N2CCN(C(c3ccc(F)cc3)c3ccc(F)cc3)CC2)n1` [Almitrine]: 13.4 min; for `OCc1nnc2n1-c1ccc(Cl)cc1C(c1ccccc1)=NC2` [Alprazolam- alpha-Hydroxy]: 8.11 min.
Turning to `Cc1nnc2n1-c1ccc(Cl)cc1C(c1ccccc1)=NC2O` (configuration not stated) [Alprazolam-Hydroxy], the LC retention time was 7.81 min.
The same measure for `Cc1nnc2n1-c1ccc(Cl)cc1C(c1ccccc1)=NC2` [Alprazolam]: 8.36 min; for `C=CCc1ccccc1OCC(O)CNC(C)C` (configuration not stated) [Alprenolol]: 6.71 min.
Consider `CN(C)c1nc(N(C)C)nc(N(C)C)n1` [Altretamine], for which the LC retention time is 10.1 min.
Take `CCC(CN(C)C)(CN(C)C)OC(=O)c1ccccc1` [Alypin]: the LC retention time is 6.07 min.
The same measure for `NC12CC3CC(CC(C3)C1)C2` [Amantadine]: 4.86 min.
The same measure for `Nc1c(Br)cc(Br)cc1CNC1CCC(O)CC1` (configuration not stated) [Ambroxol]: 6.04 min.
The same measure for `CC(=O)OCC(=O)C12OC3(CCCC3)OC1CC1C3CCC4=CC(=O)C=CC4(C)C3(F)C(O)CC12C` (configuration not stated) [Amcinonide]: 11.2 min; for `CCNc1nc(NC(C)C)nc(SC)n1` [Ametryn]: 9.16 min; for `CCN(CC)C(C)C(=O)c1ccccc1` (configuration not stated) [Amfepramone]: 4.11 min.
Take `CNCC(O)c1cccc(NS(C)(=O)=O)c1` (configuration not stated) [Amidephrine]: the LC retention time is 2.54 min.
In the case of `CCCCCCCCCCCCCC(=O)NCCC[N+](C)(C)CCCS(=O)(=O)O` [Amidosulfobetaine-14] it was 15 min; in that of `COc1cc(OC)nc(NC(=O)NS(=O)(=O)N(C)S(C)(=O)=O)n1` [Amidosulfuron], 6.77 min; in that of `NC(N)=NC(=O)c1nc(Cl)c(N)nc1N` [Amiloride], 3.68 min.
In the case of `CNC(=O)Oc1ccc(N(C)C)c(C)c1` [Aminocarb  (Metacil)] it was 5.15 min; in that of `CCC1(c2ccc(N)cc2)CCC(=O)NC1=O` (configuration not stated) [Aminoglutethimide], 4.99 min; in that of `Cc1c(N(C)C)c(=O)n(-c2ccccc2)n1C` [Aminophenazone. Amidopyrin], 5.21 min.
The same measure for `CCCCc1oc2ccccc2c1C(=O)c1cc(I)c(OCCN(CC)CC)c(I)c1` [Amiodarone]: 12.1 min; for `CC[N+]1([O-])CCCC1CNC(=O)c1cc(S(=O)(=O)CC)c(N)cc1OC` (configuration not stated) [Amisulpride-N-Oxide]: 4.33 min.
As for `CCN1CCCC1CNC(=O)c1cc(S(=O)(=O)CC)c(N)cc1OC` (configuration not stated) [Amisulpride], the LC retention time was 3.88 min.
In the case of `Cc1ccc(N=CN(C)C=Nc2ccc(C)cc2C)c(C)c1` [Amitraz] it was 13.3 min; in that of `CN(C)CCC=C1c2ccccc2CCc2ccccc21` [Amitriptyline], 8.23 min.
In the case of `CCOC(=O)C1=C(COCCN)NC(C)=C(C(=O)OC)C1c1ccccc1Cl` (configuration not stated) [Amlodipine] it was 8.36 min; in that of `CCC(C)(C)c1ccc(CC(C)CN2CC(C)OC(C)C2)cc1` (configuration not stated) [Amorolfine], 12.9 min.
